US11419881B2, “Treatment of migraine” (priority 2019, dated 2022)

How the values were obtained:
[1] = assay type: in vivo, human
[2] = Nasal spray 0.5 μg versus vehicle in 14 women of reproductive age, physiologic parameters; assay type: in vivo, human; conditions: compared to vehicle
[3] = Ames reverse mutation assay
[4] = Reproductive toxicity studies in pregnant rabbits; assay type: in vivo; conditions: intravenous up to 2.5 mg/kg/day during organogenesis
estrogen receptors = experiment: In vitro agonist/antagonist activity on estrogen receptors; assay type: biochemical
[5] = Hot flashes in menopausal women after nasal administration; assay type: in vivo, human
Excerpt: 16α,17α-Epoxy-10β-hydroxyestr-4-en-3-one decreased parasympathetic system tone resulting in increased sympathetic activity and stimulation of β2 adrenergic receptors in the bronchiole smooth muscle that induced bronchodilation; (b) increased skin conductance amplitude is the result of increased skin secretions, which are produced by preponderance of the sympathetic nervous system tone (or decreased parasympathetic tone); (c) decreased body temperature is explained by increased activity of the posterior (adrenergic) hypothalamus and decreased parasympathetic tone (anterior hypothalamus).

[6] = in vivo
[7] = Exploratory single-blind study in chronic migraine subjects (HAM-A, HAM-D, VRS, resting state fMRI)
[8] = Reflex (autonomic) activity after nasal administration in human volunteers; assay type: in vivo; conditions: nasal 1.6 μg
Protocol: The half effective dose of this effect was 0.087 μg.

[9] = In vivo bone marrow micronucleus test
progestin receptors = target: T1, progestin receptors (Homo sapiens, UniProt P06401); experiment: In vitro agonist/antagonist activity on progestin receptors; assay type: biochemical
T1 sequence (P06401 1-933): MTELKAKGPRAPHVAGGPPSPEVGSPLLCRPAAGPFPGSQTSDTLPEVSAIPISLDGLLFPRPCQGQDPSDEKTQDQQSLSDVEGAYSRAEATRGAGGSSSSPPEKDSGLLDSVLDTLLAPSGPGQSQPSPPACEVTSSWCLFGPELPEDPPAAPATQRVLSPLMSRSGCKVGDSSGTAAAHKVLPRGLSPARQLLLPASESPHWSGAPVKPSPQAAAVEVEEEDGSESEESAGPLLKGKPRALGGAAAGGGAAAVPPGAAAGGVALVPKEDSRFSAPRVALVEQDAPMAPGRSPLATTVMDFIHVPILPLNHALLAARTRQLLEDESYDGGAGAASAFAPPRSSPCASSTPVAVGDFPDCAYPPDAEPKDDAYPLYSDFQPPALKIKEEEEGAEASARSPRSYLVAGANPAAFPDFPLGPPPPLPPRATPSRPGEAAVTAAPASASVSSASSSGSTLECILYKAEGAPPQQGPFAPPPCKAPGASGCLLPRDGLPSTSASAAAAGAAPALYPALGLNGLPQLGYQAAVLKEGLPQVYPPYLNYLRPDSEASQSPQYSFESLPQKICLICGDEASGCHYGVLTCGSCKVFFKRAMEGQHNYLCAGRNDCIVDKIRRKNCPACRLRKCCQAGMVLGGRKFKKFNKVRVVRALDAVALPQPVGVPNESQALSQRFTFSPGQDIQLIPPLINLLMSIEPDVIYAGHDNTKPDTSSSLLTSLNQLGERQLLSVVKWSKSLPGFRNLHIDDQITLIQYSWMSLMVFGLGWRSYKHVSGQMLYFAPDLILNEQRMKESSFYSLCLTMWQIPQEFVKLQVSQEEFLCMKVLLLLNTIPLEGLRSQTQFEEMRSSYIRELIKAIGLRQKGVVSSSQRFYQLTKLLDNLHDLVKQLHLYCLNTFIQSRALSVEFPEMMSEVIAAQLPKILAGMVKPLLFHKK

[10] = test system: isolated human nasal chemosensory neurons; experiment: Electrophysiology: inward currents in isolated human nasal chemosensory neurons; assay type: cell-based
[11] = Nasal spray 1.6 μg in women of reproductive age, core body temperature and sympathoadrenergic tone; assay type: in vivo, human
Protocol: It also changed the tone of the sympathoadrenergic system (as assessed by measuring physiologic sinus arrhythmia) within 5 minutes of administration, and the effect persisted for 15 to 20 minutes.

[12] = after single dose nasal administration
[13] = women with PMDD, nasal, versus placebo
[14] = migraine subjects, 6.4 μg nasal, relative to placebo

C[C@]12CC[C@H]3[C@@H](CCC4=CC(=O)CC[C@@]43O)[C@@H]1C[C@H]1O[C@H]12 [16α,17α-epoxy-10β-hydroxyestr-4-en-3-one]
persistence of improvements [1, 12]: approximately 5 hours
time to appearance of improvements [1, 12]: ≤ 30 min
serious adverse events ([1]; in vivo): No serious adverse events were reported
side effects ([1]; in vivo): minimal and similar to administration of placebo
cortical behavioral symptoms (headache, tension) [1, 13]: significant improvements
hypothalamic behavioral symptoms (fatigue, anger, craving for foods) [1, 13]: significant improvements
limbic system behavioral symptoms (mood swings, depression, lack of interest) [1, 13]: significant improvements
cardiac frequency [2]: not statistically significant increase
core body temperature [2]: statistically significant decreases
galvanic skin reflex [2]: statistically significant decreases
respiratory frequency [2]: statistically significant decreases
skeletal muscle tone [2]: statistically significant decreases
mutagenic or clastogenic potential [3]: no evidence of mutagenic or clastogenic potential
effects on maternal or litter parameters [4]: no adverse effects on maternal or litter parameters
agonist or antagonist activity on estrogen receptors (estrogen receptors): no agonist or antagonist activity
number, severity and bother of hot flashes [5]: decreased number, severity and bother of hot flashes
systemic exposure [6]: lack of systemic exposure
functional connectivity of the amygdala with the anterior occipital lobe and right middle occipital lobe (fMRI) [7, 14]: increased functional connectivity
functional connectivity of the hypothalamus with the anterior orbital gyrus, right medial orbital gyrus and pons (fMRI) [7, 14]: decreased functional connectivity
functional connectivity of the right thalamus with left orbitofrontal cortex, superior parietal lobe, left insular cortex and left primary motor cortex (fMRI) [7, 14]: decreased functional connectivity
functional connectivity of the right thalamus with the left somatosensory cortex (fMRI) [7, 14]: increased functional connectivity
tolerability ([7]; single nasal 6.4 μg, all three subjects): tolerated
mean decrease in headache pain intensity score (VRS, 6-point) relative to placebo ([7]; two migraine subjects, single nasal 6.4 μg, 15 minutes, p<0.01): 2.5
anxiety scores (HAM-A) ([7]; two migraine subjects, single nasal 6.4 μg, p<0.01): significantly improved
depression scores (HAM-D) ([7]; two migraine subjects, single nasal 6.4 μg, not statistically significant): improvement trend
body core temperature (external ear canal) [8]: decreased body core temperature
cardiac rate [8]: no significant change
depth of the inspiratory cycle of respiration [8]: significantly increased amplitude
latency of modulation of reflex activity after the electrogram [8]: 5 to 10 s
skeletal muscle tone (electromyogram, chin muscles) [8]: decreased skeletal muscle tone
skin conductance (electrodermal activity) ([8]; palmar surface of fourth and fifth finger): increased amplitude of the skin conductance
respiration rate ([8]; within physiologic range): decreased respiration rate
mutagenic or clastogenic potential [9]: no evidence of mutagenic or clastogenic potential
agonist or antagonist activity on progestin receptors (progestin receptors): no agonist or antagonist activity
inward currents in isolated human nasal chemosensory neurons ([10]; isolated neurons): induced inward currents
concentration giving maximal response (amplitude) ([10]; response amplitude increased with concentration): 10^−7 to 10^−6 M
decrease in core body temperature [11]: 1±0.23 °C
latency of decrease in core body temperature [11]: 0.5 to 4 min
persistence of change of sympathoadrenergic tone [11]: 15 to 20 min
persistence of decrease in core body temperature [11]: 9 ± 2.5 min
time to change of sympathoadrenergic tone (physiologic sinus arrhythmia) [11]: ≤ 5 minutes
